# Results as given in US10426815B2, “Prevention and treatment of itch with an MRGPR antagonist” (THE GENERAL HOSPITAL CORPORATION, priority 2015, dated 2019).
# Entries after “also recorded” stand apart in the source; their conditions may differ.
# What was measured:
# [1] = target: T1, hMRGPRX2 (Homo sapiens, UniProt Q96LB1); test: Concentration-effect curves of substance P versus QWF, stable HEK-293 cell line; assay type: cell-based; details: stable HEK-293 clone; experiment done once, triplicate points
# T1 construct: expressed in transfected cells
# T1 sequence (Q96LB1 1-330): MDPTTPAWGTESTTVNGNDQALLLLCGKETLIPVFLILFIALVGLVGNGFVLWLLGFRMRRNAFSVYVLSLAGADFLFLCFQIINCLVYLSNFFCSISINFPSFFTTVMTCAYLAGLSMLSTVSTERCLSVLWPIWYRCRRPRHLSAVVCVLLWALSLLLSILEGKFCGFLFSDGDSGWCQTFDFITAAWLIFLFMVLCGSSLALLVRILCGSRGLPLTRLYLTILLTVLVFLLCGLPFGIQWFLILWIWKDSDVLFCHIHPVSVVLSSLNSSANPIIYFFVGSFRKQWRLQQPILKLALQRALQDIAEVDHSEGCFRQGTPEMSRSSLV
# Description: Concentration-effect curves with substance P versus the indicated concentrations of QWF on a stable HEK-293 cell line expressing hMRGPRX2. HEK293 cells were transfected with a pcDNA3.1(−) vector containing MRGPRX2 cDNA and clones resistant to […] (G418) were selected. The data were generated from one of those clones. The experiment was done once with each data point done in triplicate. Error bars represent+/−SEM.
# [2] = system: dorsal root ganglion neurons from NK1 mice; test: DRG culture and calcium imaging, NK1 knockout mice; assay type: cell-based, mouse
# Experimental: Cervical to lumbar dorsal root ganglia (DRG) from C57/B6 or NK1 mice (1 month old) were dissected and maintained in DMEM (GIBCO, Langley, Okla., USA), containing […] L-glutamine (FISHER […], Pittsburgh, Pa., USA), 10% heat inactivated fetal bovine serum (GIBCO, Langley, Okla., USA), 5000 U/ml penicillin and 5000 μg/ml streptomycin (FISHER […], Pittsburgh, Pa., USA). Enzymatic digestion was carried out with 1 mg collagenase in 1 ml dispase (ROCHE Applied Sciences, IN, USA), at 37° C. for 70 min. The collagenase/dispase solution was removed, and DRGs were washed and suspended in DMEM containing 125 U DNAse (SIGMA, St Louis, USA) within which the ganglia were mechanically triturated using fire-polished glass pipettes. […] Cells were evaluated using a NIKON Eclipse Ti inverted microscope equipped with an Exi Aqua CCD camera (QIMAGING, British Columbia, Canada). Ca^2+ flux fluorescence was measured as an […] ratio at 340 nm and 380 nm (F340/380) (Lambda DG4, Sutter Instruments, Novato, Calif., US). The 340/380 ratiometric images were analyzed using NIKON Elements AR Software (NIKON, Melville, N.Y. USA). […]
# [3] = target: T2, NK1R (NK1) (Homo sapiens, UniProt P25103); test: Calcium imaging of cells transfected with the GPCR (Table 1); assay type: cell-based; details: FIG. 6a: SP 5 nM, inhibitors 1 μM
# T2 construct: host or cells: HeLa cells, pcDNA3.1(-)
# Experimental: Human NK1 cDNA was obtained from LIFE Technologies, PCR cloned with Xho I-Hind III ends and cloned into pcDNA3.1(−). Mouse NK2 and NK3 expression-ready vectors were obtained from […] (Piscataway, N.J.). All other Mrgprs (human MRGPRX1, human MRGPRX2, human MRGPRX3, human MRGPRX4, mouse MrgprA2a, mouse MrgprA2b, mouse MrgprA3, mouse MrgprA4, mouse MrgprA9, mouse MrgprA10, mouse MrgprB4 and mouse MrgprB5) were cloned by PCR from genomic DNAs and inserted into pcDNA3.1 (−).
# 10 μg of expression vector (human MRGPRX2, mouse MrgprA1 or NK1) and 10 μl of LIPOFECTAMINE 2000 transfection reagent were diluted into 0.5 ml of DMEM and separately left at room temperature (RT) for 5 min. They were then mixed and incubated at RT for 20 minutes prior to being added to HeLa cells. HeLa cells were grown to confluence, trypsinized and 1×10^6 cells were pelleted in a 15 ml tube by centrifugation at 1000 rpm for 5 minutes. […]
# Calcium imaging was performed immediately after loading cells with Fura-2, using a ZEISS Axiovert 200M microscope platform equipped with a flipping filter wheel for ratiometric imaging. […] The software later analyzed all images taken during each excitation period. Ratiometric changes were measured in 10-20 cells in each individual experiment. An average of the fluorescence of the cells in each image was calculated and plotted against time in seconds.
# T2 sequence (P25103 whole entry): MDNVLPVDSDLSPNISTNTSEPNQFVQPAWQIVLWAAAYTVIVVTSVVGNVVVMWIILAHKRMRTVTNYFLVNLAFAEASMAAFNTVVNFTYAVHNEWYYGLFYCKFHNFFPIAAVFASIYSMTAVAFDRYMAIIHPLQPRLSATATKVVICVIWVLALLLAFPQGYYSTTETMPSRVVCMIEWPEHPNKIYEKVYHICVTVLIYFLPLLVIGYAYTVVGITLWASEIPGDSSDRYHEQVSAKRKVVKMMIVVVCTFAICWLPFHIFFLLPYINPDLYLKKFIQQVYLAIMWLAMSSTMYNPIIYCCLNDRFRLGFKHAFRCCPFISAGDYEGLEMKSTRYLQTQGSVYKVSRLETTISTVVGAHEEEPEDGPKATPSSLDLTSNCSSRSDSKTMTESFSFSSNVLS
Substance,mode of QWF antagonism of substance P at hMRGPRX2 [1],inhibition of SP-induced activation of NK1 knockout DRG neurons ([2]; QWF 1 μM),inhibition of NK1 (activation by SP) [3],"activation of NK1 knockout DRG neurons by SP ([2]; cultured DRGs, calcium imaging)"
Boc-Gln-D-Trp(Formyl)-Phe benzyl ester trifluoroacetate [QWF],competitive antagonist,significantly diminished; also recorded: blocked; also recorded: inhibits; also recorded: significantly decreases,inhibit; also recorded: blocks,
"SP: inflammatory undecapeptide neuropeptide of the tachykinin family, synthesized by GenScript",,,,activated
